Measurements published in patent US20090023637A1, “Methods for detecting and treating interstitial cystitis” (priority 2006, published 2009).

Tests used:
[1] = system: rat bladder; assay: Evaluation of bladder overactivity in rodents (urodynamics), Example 4; type: in vivo, Sprague-Dawley rats; details: intravesical infusion; PS 30 mg/mL, toxic factor 15 mg/mL, or PPS 10 mg/ml + toxic factor 15 mg/ml, followed by 400 mM KCl for 30 minutes
Source text: After a few days of acclimatization, three groups (n=9 each) of adult male Sprague-Dawley rats (325-350 g) underwent urodynamics evaluation of bladder hyperactivity before and after intravesical infusion of a test substance (PS, urinary toxic factor, or toxic factor plus PPS) followed by intravesical KCl.^4
The procedure was as follows: The rats were anesthetized with a subcutaneous injection of urethane (1.2 g/Kg) and a 1 cm incision made along the centerline of the lower ventral abdomen. […] During the continuous filling bladder cystometry, the pressure was recorded with the transducer using the program LabView (National Instruments, TX).
To induce hyperactivity, the bladder was first infused with warm 0.9% saline (37° C.) at 40 μL/min (2.4 mL/hr) and at least 20 minutes of stable voiding cycles recorded during infusion. The pressure threshold (PT, pressure at which voiding initializes) and peak pressure (PP, pressure maximum or amplitude of bladder contractions) were recorded. Frequency of contractions and inter-contractile interval (ICI) were recorded, along with the percentage of non-voiding contractions (% NVC, contractions where the PP is greater than 2 cm H2O and less than the TP, thus not resulting in a void). […]

[2] = system: rat bladder; assay: Evaluation of bladder overactivity in rodents (urodynamics), Example 2; type: in vivo, Sprague-Dawley rats; details: intravesical infusion; TF 15 mg/mL alone or mixed 1:1 with unmodified THP or THP-d 10 mg/ml, followed by 400 mM KCl for 30 min
Method: After a few days of acclimatization, adult male SD rats underwent urodynamics evaluation of bladder hyperactivity before and after intravesical infusion of a test substance^8 (TF or TF plus unmodified THP or TF plus THP-d) followed by intravesical KCl. The procedure for the in vivo rat study was performed as described previously.^23
After baseline measurements of pressure threshold, peak pressure, frequency of contractions, inter-contractile interval, and percentage of nonvoiding contractions (NVC) were recorded as previously described,^23 rats were infused with the test solution. One group of animals received an infusion of TF (15 mg/mL). To test the effect of desialylation on the ability of THP to attenuate the bladder hyperactivity induced by TF and KCl, second and third groups of animals received an infusion of a mixture of unmodified THP or THP-d 10 mg/ml and TF (15 mg/ml) mixed in a ratio of 1:1.
Infusion of the test solution was followed by infusion of 400 mM KCl for 30 min^8 and urodynamics measurements were repeated.

[3] = system: rat bladder; assay: Evaluation of bladder overactivity in rodents (urodynamics, KCl infusion after test substance), Example 1; type: in vivo, Sprague-Dawley rats; details: intravesical infusion; TF 15 mg/mL or THP 10 mg/ml + TF 15 mg/ml 1:1, followed by 400 mM KCl for 30 minutes
Source text: After a few days of acclimatization, two groups (n=9 each) of adult male Sprague-Dawley rats (325-350 g) underwent urodynamics evaluation of bladder hyperactivity before and after intravesical infusion of a test substance (TF or TF plus THP) followed by intravesical KCl.^8 The procedure was as follows.
The rats were anesthetized with a subcutaneous injection of urethane (1.2 g/Kg) and a 1 cm incision was made along the centerline of the lower ventral abdomen. Once the bladder was exteriorized, a 22 gauge (0.7 mm) catheter (Intracath, Becton-Dickinson, OH) was inserted into the bladder dome and sutured in place using a purse string suture with 4.0 tapered prolene suture. The bladder was returned to the abdomen, with the line escaping through the incision. […] During the continuous filling bladder cystometry, the pressure was recorded with the transducer using the program LabView (National Instruments, TX).
To induce hyperactivity, the bladder was first infused with warm (37° C.) 0.9% saline or 400 mM KCl (29.8 mg/mL, Abbott Laboratories, IL) at 40 μL/min (2.4 mL/hr) and at least 20 minutes of stable voiding cycles were recorded during infusion. The pressure threshold (PT, pressure at which voiding initializes) and peak pressure (PP, pressure maximum or amplitude of bladder contractions) were recorded. […]

[4] = system: human bladder cells (HTB4); assay: Cytotoxicity assay, unmodified versus desialylated THP, Example 2
Method: The TF obtained from 2 different pooled urine samples (TF1, TF2) was tested for cytotoxicity using the CellTiter96 Aqueous One Solution Proliferation Assay™ (Promega Corp, Madison, Wis.). Rat urothelial target cells and human HTB4 urothelial cells were plated in 96-well tissue culture plates (Nunclon™) in triplicate (50,000 cells/well). Cells had been maintained in Ham's-M199 tissue culture media supplemented with 10% fetal calf serum (FCS)+antibiotics (Pen-Strep).
For cytotoxicity assay, cells were harvested from seed flasks, washed free of trypsin-EDTA, and resuspended in DME media (without phenol red indicator) −1% FCS (assay media). An aliquot of the cell suspension was counted in a hemocytometer and diluted with assay media to a concentration of 0.5×10^6 cells/ml, from which 100 μl (5×10^4 cells) were added to each well in a 96-well microtiter plate. […] Dose response data was determined beforehand for the TF preparations. […]
After overnight incubation at 37° C., the target cells were washed twice with DME alone (200 μl/well) and fresh DME added to each well (90 μl). Then a tetrazolium compound (MTS-Owen's Reagent) combined with an electron coupling reagent (PES) was added (10 μl/well) per kit protocol and absorbance measured in a plate reader after 30 min incubation at 490 nm and at 630 nm after blanking the plate to DME media containing the tetrazolium compound. […]

[5] = THP zeta potential (mV) measurements; type: physicochemical; details: 0.01M NaCl buffer, pH 7.0 at 25° C.; n=6 in each group
Method: Surface charge properties (zeta potential) are measured for THP samples from patients (n=6) and controls (n=6). THP (Biomedical Technologies, Inc.) and fetuin and asialofetuin (Sigma Chemical Co.) standards (50 μg) are similarly measured. Zeta potential and size measurements are made with a Zetasizer Nano ZS instrument and a CGS-3 Goniometer system (Malvern Instruments Inc., Southborough, Mass.) with ancillary software version 4.0. All zeta potential measurements are conducted on rehydrated samples in 0.01M NaCl buffer, pH 7.0 at 25° C., after centrifugation followed by filtration ([…]) to remove any aggregates. Measurements are made in triplicate and the results analyzed by Student's t test for significance.

[Cl-].[K+] [KCl]
NVC/minute (nonvoiding contractions) [1]: 0.25 ± 0.064 NVC/minute | NVC/minute (nonvoiding contractions) [2]: 0.25 ± 0.064 NVC/minute | NVC/minute (nonvoiding contractions) [3]: 0.25 ± 0.064 NVC/minute

THP-d: THP desialylated by mild acid hydrolysis in 2.5M acetic acid, 3 hr at 82° C.
Average cytotoxicity (%) ([4]; HTB4 cells 5 × 10^4/well, THP or THP-d mixed with TF 60 min, overnight incubation, relative to media controls): 13.4%

control THP: THP isolated from urine of healthy control subjects
zeta potential [5]: −28.0±2.4 mV

protamine sulfate
NVC/minute (nonvoiding contractions) [1]: 1.733 ± 0.55 NVC/minute | Cytotoxicity LD50 ([4]; footnote to Table 3, known cytotoxic agent): †Cytotoxicity of protamine sulfate, a known cytotoxic agent: LD50 = ~20 μg
